These are literature values, as cited in patent US6406894B1, “Process for preparing polyvalent and physiologically degradable carbohydrate-containing polymers by enzymatic glycosylation reactions and the use thereof for preparing carbohydrate building blocks” (Glycorex AB, priority 1992, dated 2002).

The target in the series is T1, E-selectin-IgG (Homo sapiens, UniProt P16581).
T1 construct: soluble fusion proteins formed between the extracytoplasmic domain of E- or P-selectin together with the constant region of a human immunoglobulin of subclass IgG1; made in house; host or cells: COS-7 cells, transient transfection with DEAE-dextran; the culture supernatant was used and captured on plates coated with anti-human IgG
Conditions: comparative value, c.f. EPA 93 119 098.7; read-out: Comparative value: IC50 of HL60 cell adhesion to E-selectin-IgG.

T1 sequence (P16581 with tags, fused parts or gaps): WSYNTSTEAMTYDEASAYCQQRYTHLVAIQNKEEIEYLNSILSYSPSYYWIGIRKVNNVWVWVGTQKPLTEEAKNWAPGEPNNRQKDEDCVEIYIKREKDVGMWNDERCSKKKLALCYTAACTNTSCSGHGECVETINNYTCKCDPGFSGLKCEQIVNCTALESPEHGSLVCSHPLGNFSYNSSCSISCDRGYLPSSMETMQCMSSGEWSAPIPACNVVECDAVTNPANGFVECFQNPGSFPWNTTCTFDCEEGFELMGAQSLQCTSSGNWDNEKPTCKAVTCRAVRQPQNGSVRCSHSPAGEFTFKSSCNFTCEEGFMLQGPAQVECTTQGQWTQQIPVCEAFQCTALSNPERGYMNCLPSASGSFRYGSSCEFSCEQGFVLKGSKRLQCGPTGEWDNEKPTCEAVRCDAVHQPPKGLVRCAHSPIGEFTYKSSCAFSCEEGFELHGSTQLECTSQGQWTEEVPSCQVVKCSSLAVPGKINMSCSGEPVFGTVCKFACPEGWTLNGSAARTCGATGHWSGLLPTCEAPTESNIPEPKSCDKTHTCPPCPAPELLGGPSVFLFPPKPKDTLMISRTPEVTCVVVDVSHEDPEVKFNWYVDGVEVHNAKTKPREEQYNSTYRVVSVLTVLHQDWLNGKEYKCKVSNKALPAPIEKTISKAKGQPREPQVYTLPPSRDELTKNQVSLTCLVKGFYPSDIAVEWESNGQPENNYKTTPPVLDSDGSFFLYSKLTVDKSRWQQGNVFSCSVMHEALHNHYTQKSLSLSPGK

On to `CC(=O)NC1C(O)CC(OC2C(O)C(CO)OC(OC3C(CO)OC(OCCCCCCN)C(NC(C)=O)C3OC3OC(C)C(O)C(O)C3O)C2O)(C(=O)O)OC1C(O)C(O)CO` (stereo not shown) [Sialyl-Le^x—O(CH2)6NH2], for which the IC50 (commonly the concentration that inhibits the measured activity by half) was 1000 µM.
